Measurements reported in patent US20180153850A1, “COMPOSITIONS AND METHODS FOR TREATMENT OF CANCER” (The Regents of the University of California, priority 2015, published 2018).
Where two headings read alike, the source gives them in different places.

Columns and labels:
DU145 cells = experiment: Cell growth assay in parental DU145 cells; type: cell-based; conditions: Homo sapiens, DU-145, read-out: IC50 to docetaxel, 24 hrs
Procedure: (§1) Top panel, fluorescent and phase contrast pictures are shown. Lower panel, rhodamine intake ratio. […] Cell numbers were counted after 24 hrs of treatment. […] Cell numbers were counted after 24 hrs of treatment. […] Tumor sizes were measured twice a week.
(§2) Cells were seeded in 12-well plates at a density of 1×10^5 cells per well. Cells were treated and total cell numbers were counted using a Coulter cell counter.

TaxR tumors = experiment: In vivo tumorigenesis assay, TaxR tumors; design: species or system SCID mice; conditions: docetaxel 10 mg/kg i.p. once a week; bicalutamide 25 mg/kg p.o. 5 days a week; 3 weeks
Procedure: (§3) Tumor sizes were measured twice a week. *, P<0.05. **, P<0.01. DTX, docetaxel, Bic, bicalutamide.
(§4) Tumor tissues were harvested after 3 weeks of treatment.

DU145-DTXR cells = experiment: Cell growth assay in DU145-DTXR cells; type: cell-based; conditions: for IC50: 24 h; for docetaxel resistance in DU145-DTXR cells: 10 nM docetaxel with 0.5 μM elacridar or 20 μM bicalutamide or enzalutamide, 48 hrs
Procedure: as §1
DU145-DTXR cells were plated in 12-well plate at 1×10^5 cells per well. […] FIG. 8A: Cell numbers were counted. FIG. 8B: Cell pictures were taken to show the cell survival inhibition.
DU145-DTXR cells were plated in 12-well plate at 1×10^5 cells per well. […] Cell numbers were counted (top panel: bicalutamide; bottom panel: enzalutamide). FIG. 9B: DU145 parental cells and DU145-DTX cells were plated in 12-well plate at 1×10^5 cells per well. […] Cell numbers were counted.
as §2

C4-2B tumors = experiment: In vivo tumorigenesis assay, C4-2B tumors; design: species or system SCID mice; conditions: docetaxel 10 mg/kg once a week
Procedure: as §3, §4

TaxR cells = experiment: Cell growth assay in TaxR cells; type: cell-based; conditions: 24 h, read-out: IC50 value of docetaxel, TaxR cells
Procedure: Top panel, fluorescent and phase contrast pictures are shown. Lower panel, rhodamine intake ratio. […] Cell numbers were counted after 24 hrs of treatment.
Fluorescent and phase contrast pictures are shown. Lower panel is the rhodamine intake ratio. […] Cell numbers were counted after 24 hrs of treatment. […] The numbers of colonies were counted after 3 weeks.
as §2

[1] = biological target: ABCB1 (P-glycoprotein, MDR1) (Homo sapiens, UniProt P08183); experiment: in vitro
Chain of ABCB1 (P-glycoprotein, MDR1) (P08183 whole entry): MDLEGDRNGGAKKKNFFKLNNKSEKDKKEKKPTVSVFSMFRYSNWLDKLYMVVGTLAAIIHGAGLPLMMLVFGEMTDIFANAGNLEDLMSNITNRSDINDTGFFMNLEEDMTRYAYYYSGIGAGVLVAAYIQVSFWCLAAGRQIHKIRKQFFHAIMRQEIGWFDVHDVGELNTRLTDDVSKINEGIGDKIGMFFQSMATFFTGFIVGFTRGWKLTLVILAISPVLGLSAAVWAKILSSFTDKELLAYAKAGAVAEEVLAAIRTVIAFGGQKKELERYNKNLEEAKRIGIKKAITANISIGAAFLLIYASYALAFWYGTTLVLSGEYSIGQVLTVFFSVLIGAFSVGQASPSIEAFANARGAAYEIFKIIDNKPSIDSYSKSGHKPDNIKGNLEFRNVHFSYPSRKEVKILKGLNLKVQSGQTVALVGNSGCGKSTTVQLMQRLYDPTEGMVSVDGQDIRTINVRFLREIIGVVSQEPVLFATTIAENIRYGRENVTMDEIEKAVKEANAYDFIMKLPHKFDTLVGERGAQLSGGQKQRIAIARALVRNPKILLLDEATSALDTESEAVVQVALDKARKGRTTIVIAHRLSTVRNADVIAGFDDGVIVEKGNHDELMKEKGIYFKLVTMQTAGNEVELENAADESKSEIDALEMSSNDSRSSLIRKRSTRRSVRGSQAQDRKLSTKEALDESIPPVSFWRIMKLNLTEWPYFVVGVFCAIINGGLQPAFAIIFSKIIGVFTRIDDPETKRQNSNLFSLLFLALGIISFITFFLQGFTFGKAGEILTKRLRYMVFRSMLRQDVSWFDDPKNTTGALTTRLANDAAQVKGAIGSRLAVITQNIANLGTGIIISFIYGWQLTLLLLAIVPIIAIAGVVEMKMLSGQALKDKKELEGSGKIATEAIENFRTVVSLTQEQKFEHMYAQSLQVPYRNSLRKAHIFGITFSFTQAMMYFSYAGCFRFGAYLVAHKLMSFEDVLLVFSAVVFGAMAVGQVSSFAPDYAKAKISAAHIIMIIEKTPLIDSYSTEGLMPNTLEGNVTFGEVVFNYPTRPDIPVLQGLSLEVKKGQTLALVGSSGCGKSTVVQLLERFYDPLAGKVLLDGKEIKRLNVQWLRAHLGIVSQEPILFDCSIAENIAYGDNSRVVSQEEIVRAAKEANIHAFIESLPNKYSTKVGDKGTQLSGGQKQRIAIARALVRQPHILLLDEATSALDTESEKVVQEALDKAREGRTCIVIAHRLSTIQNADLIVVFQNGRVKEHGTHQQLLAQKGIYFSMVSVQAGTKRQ

ABCB1 (P-gp) ATPase = ABCB1 (P-gp) ATPase (Homo sapiens, UniProt P08183); experiment: in vitro
Chain of ABCB1 (P-gp) ATPase (P08183 whole entry): as above

ABCB1 = ABCB1 (Homo sapiens, UniProt P08183); conditions: 48 h, 20 μmol/L
Chain of ABCB1 (P08183 whole entry): as above

IC50 (DU145-DTXR cells; read-out: IC50 to docetaxel) [nM]	IC50 (DU145-DTXR cells; read-out: IC50 value of docetaxel) [nM]	inhibition at 24 h, 20 μM [1] [%]	inhibition at 40 min, 40 µM (ABCB1 (P-gp) ATPase) [%]	rhodamine intake (ABCB1) [%]	inhibition at 40 min, 2.5 µM (ABCB1 (P-gp) ATPase) [%]	SMILES	IC50 (DU145 cells) [nM]	tumor growth of TaxR cells (TaxR tumors)	effect on growth of DU145-DTXR cells (DU145-DTXR cells; 10 nM docetaxel, 20 μM bicalutamide, alone or combined, 24 hrs)	C4-2B tumor growth (C4-2B tumors)	IC50 (TaxR cells; docetaxel alone, 24 hrs) [nM]	IC50 (TaxR cells; in combination with 20 μM bicalutamide, 24 hrs) [nM]	IC50 (TaxR cells; in combination with 20 μM enzalutamide, 24 hr) [nM]	docetaxel resistance in DU145-DTXR cells (DU145-DTXR cells)
52	~7.5	–	–	–	–	CC(=O)O[C@@]12CO[C@@H]1C[C@H](O)[C@@]1(C)C(=O)[C@H](O)C3=C(C)[C@@H](OC(=O)[C@H](O)[C@@H](NC(=O)OC(C)(C)C)c4ccccc4)C[C@@](O)([C@@H](OC(=O)c4ccccc4)[C@H]21)C3(C)C [docetaxel]	4.3	Neither docetaxel nor bicalutamide treatment alone inhibited tumor growth	only minimal effects	significantly repressed	140	~5	~3	–
–	–	~60	60	66.2	–	CNC(=O)c1ccc(N2C(=S)N(c3ccc(C#N)c(C(F)(F)F)c3)C(=O)C2(C)C)cc1F [enzalutamide]	–	–	–	–	–	–	–	reversal of docetaxel resistance
–	–	–	–	–	69	COc1cc2c(cc1OC)CN(CCc1ccc(NC(=O)c3cccc4c(=O)c5cccc(OC)c5[nH]c34)cc1)CC2 [elacridar]	–	–	–	–	–	–	–	reversal of docetaxel resistance
